According to the supplement of paper PMC10307832:

Tests used:
Test in all cases: relative viability (nuclei count vs DMSO), 5 days (fraction); higher = more cells survive
AZD8055 + Vorinostat = compound: COc1ccc(-c2ccc3c(N4CCOC[C@@H]4C)nc(N4CCOC[C@@H]4C)nc3n2)cc1CO [AZD8055] + O=C(CCCCCCC(=O)Nc1ccccc1)NO [Vorinostat] (partner 1 µM)
In short: (§1)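 Relative viability divides the nuclei count in treated wells by that in vehicle wells. Lung cancer cell lines were seeded in 1536-well plates, dosed by pin tool the next day, and fixed and stained after 5 days in one step with final 0.05% Triton X-100, 1% formaldehyde and 1 ug/ml Hoechst. Dosing was a single drug or a fixed anchor-drug dose plus five library-drug doses (not always all listed) in √10 steps, and values are medians of duplicate plates imaged at 4×.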

AZD8055 + Crizotinib = compound: COc1ccc(-c2ccc3c(N4CCOC[C@@H]4C)nc(N4CCOC[C@@H]4C)nc3n2)cc1CO [AZD8055] + C[C@@H](Oc1cc(-c2cnn(C3CCNCC3)c2)cnc1N)c1c(Cl)ccc(F)c1Cl [Crizotinib] (partner 1 µM)
In short: as §1

AZD8055 + Tozasertib = compound: COc1ccc(-c2ccc3c(N4CCOC[C@@H]4C)nc(N4CCOC[C@@H]4C)nc3n2)cc1CO [AZD8055] + Cc1cc(Nc2cc(N3CCN(C)CC3)nc(Sc3ccc(NC(=O)C4CC4)cc3)n2)n[nH]1 [Tozasertib] (partner 0.1 µM)
In short: as §1

AZD8055 + Navitoclax = compound: COc1ccc(-c2ccc3c(N4CCOC[C@@H]4C)nc(N4CCOC[C@@H]4C)nc3n2)cc1CO [AZD8055] + CC1(C)CCC(c2ccc(Cl)cc2)=C(CN2CCN(c3ccc(C(=O)NS(=O)(=O)c4ccc(N[C@H](CCN5CCOCC5)CSc5ccccc5)c(S(=O)(=O)C(F)(F)F)c4)cc3)CC2)C1 [Navitoclax] (partner 0.5 µM)
In short: as §1

Cell Line	relative viability (AZD8055 + Vorinostat; first compound 0.01 µM)	relative viability (AZD8055 + Vorinostat; first compound 0.03162 µM)	relative viability (AZD8055 + Vorinostat; first compound 0.1 µM)	relative viability (AZD8055 + Vorinostat; first compound 0.3162 µM)	relative viability (AZD8055 + Vorinostat; first compound 1 µM)	relative viability (AZD8055 + Crizotinib; first compound 0.01 µM)	relative viability (AZD8055 + Crizotinib; first compound 0.03162 µM)	relative viability (AZD8055 + Crizotinib; first compound 0.1 µM)	relative viability (AZD8055 + Crizotinib; first compound 0.3162 µM)	relative viability (AZD8055 + Crizotinib; first compound 1 µM)	relative viability (AZD8055 + Tozasertib; first compound 0.01 µM)	relative viability (AZD8055 + Tozasertib; first compound 0.03162 µM)	relative viability (AZD8055 + Tozasertib; first compound 0.1 µM)	relative viability (AZD8055 + Tozasertib; first compound 0.3162 µM)	relative viability (AZD8055 + Tozasertib; first compound 1 µM)	relative viability (AZD8055 + Navitoclax; first compound 0.01 µM)	relative viability (AZD8055 + Navitoclax; first compound 0.03162 µM)	relative viability (AZD8055 + Navitoclax; first compound 0.1 µM)	relative viability (AZD8055 + Navitoclax; first compound 0.3162 µM)	relative viability (AZD8055 + Navitoclax; first compound 1 µM)
SK-LU-1	0.745	0.701	0.605	0.393	0.292	0.743	0.767	0.335	0.475	0.376	0.311	0.333	0.287	0.217	0.213	1.16	0.788	1.23	0.526	0.332
NCI-H441	0.985	0.72	0.534	0.346	0.246	0.767	0.667	0.565	0.359	0.232	0.591	0.767	0.499	0.309	0.295	0.748	0.955	0.464	0.334	0.251
SK-MES-1	1.06	0.958	0.962	0.427	0.314	0.94	0.944	0.781	0.494	0.318	0.904	0.837	0.625	0.434	0.274	1.05	1.25	0.818	0.404	0.342
NCI-H1355	0.587	0.541	0.414	0.214	0.235	1.12	0.851	0.587	0.231	0.231	0.483	0.5	0.399	0.278	0.228	0.959	0.736	0.382	0.21	0.21
SW 1573	0.791	0.452	0.773	0.21	0.199	0.777	0.812	0.449	0.317	0.21	0.174	0.229	0.241	0.155	0.135	0.869	0.855	0.646	0.304	0.21
NCI-H2347	0.424	0.66	0.406	0.304	0.352	0.601	0.509	0.402	0.332	0.531	0.543	0.515	0.519	0.305	0.252	0.859	0.595	0.453	0.339	0.24
LCLC-97TM1	0.751	0.585	0.414	0.354	0.308	0.365	0.352	0.154	0.158	0.193	0.207	0.157	0.128	0.118	0.137	0.45	0.225	0.214	0.13	0.144
EMC-BAC-2	0.445	0.342	0.303	0.263	0.287	0.764	0.706	0.612	0.337	0.344	0.279	0.299	0.249	0.257	0.255	1.22	1.13	1.05	0.446	0.37
NCI-H1975	0.749	0.623	0.448	0.282	0.263	0.943	0.959	0.515	0.386	0.254	0.804	0.619	0.375	0.189	0.178	0.967	0.91	0.802	0.279	0.247
BEN	0.614	0.443	0.442	0.327	0.297	0.956	0.531	0.44	0.351	0.31	0.563	0.48	0.492	0.471	0.345	0.0642	0.064	0.0538	0.0837	0.0613
NCI-H23	0.44	0.457	0.449	0.235	0.251	0.562	0.507	0.41	0.295	0.265	0.486	0.311	0.248	0.24	0.235	0.879	0.847	0.677	0.318	0.253
NCI-H520	0.621	0.406	0.242	0.188	0.154	0.58	0.53	0.37	0.195	0.194	0.381	0.305	0.213	0.251	0.192	0.928	0.612	0.359	0.21	0.176
